Measurements from paper PMC11274943, “Discovery of Benzisothiazolone Derivatives as Bifunctional Inhibitors of HIV-1 Reverse Transcriptase DNA Polymerase and Ribonuclease H Activities” (Biomolecules, 2024).
“And” between values parts separate entries of the source, which are not always exact repeats. Identical values can stand only once.

Columns and labels:
Format in all cases: biochemical
[1] = test system: K103N HIV-1 RT DNA-dependent DNA polymerase activity; assay: biochemical; settings: K103N RT; fold resistance IC50 mutant/IC50 WT
Method: (§1) WT (wild-type) RT, and RTs harboring the NNRTI-resistant mutations K101E, K103N, Y181C, Y188C, G190A and P236L, were overexpressed and purified to homogeneity as described previously. The RT concentration was determined spectrophotometrically at 280 nm using an absorbance coefficient of 260,450 M^−1·cm^−1. The 7-hydroxy tropolone derivative 19,616 (2,7-dihydroxy 2,4,6-cyclo-heptatrien-1-one) was purchased from Molecular Diversity Preservation International (Basel, Switzerland). […] The benzisothiazolone derivatives were procured from MolPort (New York, NY, USA) or Enamine (Kyiv, Ukraine). The DNA and RNA oligonucleotides were synthesized and purified by Integrated DNA Technologies (Coralville, IA, USA). All other reagents were of the highest quality available and were used without further purification.
(§2) DDDP assays were also performed using a QuantiFluor ONE based spectrophotometric assay to detect double-stranded DNA synthesized by recombinant HIV-1 RT [14]. The reaction contained 40 nM of a template/primer comprising a 200 nt DNA template (5′-[…] […]-[…]-[…] […] […]-3′) annealed to an 18-nucleotide DNA primer (5′-[…]-3′), and a mix of 50 mM Tris-HCl pH 7.8, 50 mM NaCl, 10 mM MgCl2 and 50 µM dNTP. The reactions were stopped after 45 min by adding the detection reagent containing 1 × Quant-Fluor One (Promega) and 12.5 mM ethylenediaminetet-raacetic acid; the samples were transferred to a 96-well black plate, and fluorescence was measured at excitation/emission (490/535 nm).

[2] = target: T1, Y188C HIV-1 RT DNA-dependent DNA polymerase activity (Human immunodeficiency virus type 1 group M subtype B, UniProt P04585, Y775C); assay: biochemical
T1 construct: made in house
Method: as §1, §2

[3] = test system: Y181C HIV-1 RT DNA-dependent DNA polymerase activity; assay: biochemical; settings: Y181C RT; fold resistance IC50 mutant/IC50 WT
Method: as §1, §2

[4] = target: T2, Y181C HIV-1 RT DNA-dependent DNA polymerase activity (Human immunodeficiency virus type 1 group M subtype B, UniProt P04585, Y768C); assay: biochemical
T2 construct: made in house
Method: as §1, §2

[5] = test system: Y188C HIV-1 RT DNA-dependent DNA polymerase activity; assay: biochemical; settings: Y188C RT; fold resistance IC50 mutant/IC50 WT
Method: as §1, §2

[6] = target: T3, P236L HIV-1 RT DNA-dependent DNA polymerase activity (Human immunodeficiency virus type 1 group M subtype B, UniProt P04585, P823L); assay: biochemical
T3 construct: made in house
Method: as §1, §2

[7] = target: T4, K103N HIV-1 RT DNA-dependent DNA polymerase activity (Human immunodeficiency virus type 1 group M subtype B, UniProt P04585, K690N); assay: biochemical
T4 construct: made in house
Method: as §1, §2

[8] = test system: K101E HIV-1 RT DNA-dependent DNA polymerase activity; assay: biochemical; settings: K101E RT; fold resistance IC50 mutant/IC50 WT
Method: as §1, §2

[9] = test system: Y181C HIV-1 RT RNase H activity; assay: FRET-based RT RNase H cleavage assay, Y181C RT; settings: Y181C RT; fold resistance IC50 mutant/IC50 WT
Method: (§3) WT (wild-type) RT, and RTs harboring the NNRTI-resistant mutations K101E, K103N, Y181C, Y188C, G190A and P236L, were overexpressed and purified to homogeneity as described previously. The RT concentration was determined spectrophotometrically at 280 nm using an absorbance coefficient of 260,450 M^−1·cm^−1. The 7-hydroxy tropolone derivative 19,616 (2,7-dihydroxy 2,4,6-cyclo-heptatrien-1-one) was purchased from Molecular Diversity Preservation International (Basel, Switzerland). Nevirapine was purchased from Selleckchem (Houston, TX, USA). The benzisothiazolone derivatives were procured from MolPort (New York, NY, USA) or Enamine (Kyiv, Ukraine). The DNA and RNA oligonucleotides were synthesized and purified by Integrated DNA Technologies (Coralville, IA, USA). All other reagents were of the highest quality available and were used without further purification.
(§4) The following RNA/DNA T/P substrate was used in the present study: an 18-nucleotide RNA template (RNA-18T: 5′-[…]-3′) was annealed to an 18-nucleotide primer (DNA-18T: 5′-[…]-3′), as described previously. Fluorescein and IowaBlack FQTM were covalently attached to the 3′- and 5′-ter-mini of the RNA and DNA oligonucleotides, respectively.
(§5) The FRET-based RNase H cleavage assays were carried out as described previously. Fluorescence was measured with a SpectraMax M2 microplate spectrofluorometer (Molecular Devices, San Jose, CA, USA) using an excitation wavelength of 490 nm and an emission wavelength of 528 nm. Data were analyzed using SoftMax Pro software, version 4.7.1 (Molecular Devices, San Jose, CA, USA).

[10] = target: T5, Y181C HIV-1 RT RNase H activity (Human immunodeficiency virus type 1 group M subtype B, UniProt P04585, Y768C); assay: FRET-based RT RNase H cleavage assay, Y181C RT
T5 construct: made in house
Method: as §3, §4, §5

[11] = target: T6, P236L HIV-1 RT RNase H activity (Human immunodeficiency virus type 1 group M subtype B, UniProt P04585, P823L); assay: FRET-based RT RNase H cleavage assay, P236L RT
T6 construct: made in house
Method: as §3, §4, §5

[12] = test system: P236L HIV-1 RT RNase H activity; assay: FRET-based RT RNase H cleavage assay, P236L RT; settings: P236L RT; fold resistance IC50 mutant/IC50 WT
Method: as §3, §4, §5

[13] = test system: Y188C HIV-1 RT RNase H activity; assay: FRET-based RT RNase H cleavage assay, Y188C RT; settings: Y188C RT; fold resistance IC50 mutant/IC50 WT
Method: as §3, §4, §5

[14] = target: T7, Y188C HIV-1 RT RNase H activity (Human immunodeficiency virus type 1 group M subtype B, UniProt P04585, Y775C); assay: FRET-based RT RNase H cleavage assay, Y188C RT
T7 construct: made in house
Method: as §3, §4, §5

[15] = test system: K103N HIV-1 RT RNase H activity; assay: FRET-based RT RNase H cleavage assay, K103N RT; settings: K103N RT; fold resistance IC50 mutant/IC50 WT
Method: as §3, §4, §5

[16] = target: T8, K103N HIV-1 RT RNase H activity (Human immunodeficiency virus type 1 group M subtype B, UniProt P04585, K690N); assay: FRET-based RT RNase H cleavage assay, K103N RT
T8 construct: made in house
Method: as §3, §4, §5

**Q.** Which results are given for `Cc1ccc(-n2sc3ccccc3c2=O)cc1S(=O)(=O)N1CCCCC1` [Compound 1, 2-(4-methyl-3-(piperidin-1-ylsulfonyl)phenyl)benzo[d]isothiazol-3(2H)-one]?
**A.** Inhibition of RT DNA polymerase activity Fold-R [1]: 0.6; IC50 [2]: 0.14 ± 0.01 µM; Inhibition of RT DNA polymerase activity Fold-R [3]: 0.1; IC50 [4]: 0.61 ± 0.06 µM; Inhibition of RT DNA polymerase activity Fold-R [5]: 0.02; IC50 [6]: 2.22 ± 0.18 µM; IC50 [7]: 3.66 ± 1.84 µM; Inhibition of RT DNA polymerase activity Fold-R [8]: 1.2; Inhibition of RT RNase H Activity Fold-R [9]: 2.9; IC50 [10]: 0.47 ± 0.05 µM; IC50 [11]: 0.22 ± 0.01 µM; Inhibition of RT RNase H Activity Fold-R [12]: 1.4; Inhibition of RT RNase H Activity Fold-R [13]: 2.0; IC50 [14]: 0.32 ± 0.01 µM; Inhibition of RT RNase H Activity Fold-R [15]: 2 and 2.1; IC50 [16]: 0.34 ± 0.04 µM

**Q.** Which “Inhibition of RT DNA polymerase activity Fold-R” value [1] does the source give for `CCN(CC)S(=O)(=O)c1cccc(-n2sc3ccccc3c2=O)c1` [Compound 4, N,N-diethyl-3-(3-oxobenzo[d]isothiazol-2(3H)-yl)benzenesulfonamide] here?
**A.** 1.9

**Q.** What about the IC50 [2] of the same molecule?
**A.** 0.3 ± 0.1 µM

**Q.** And the “Inhibition of RT DNA polymerase activity Fold-R” value [3]?
**A.** 0.45

**Q.** And the IC50 [4]?
**A.** 0.5 ± 0.2 µM

**Q.** And the “Inhibition of RT DNA polymerase activity Fold-R” value [5]?
**A.** 0.3

**Q.** And the IC50 [6]?
**A.** 1.6 ± 0.9 µM

**Q.** What about the IC50 [7] of the same molecule?
**A.** 2.1 ± 0.7 µM

**Q.** What about the “Inhibition of RT DNA polymerase activity Fold-R” value [8] of the same molecule?
**A.** 1.6

**Q.** And the “Inhibition of RT RNase H Activity Fold-R” value [9]?
**A.** 1.0

**Q.** What about the IC50 [10] of the same molecule?
**A.** 0.27 ± 0.03 µM

**Q.** And the IC50 [11]?
**A.** 0.31 ± 0.04 µM

**Q.** What about the “Inhibition of RT RNase H Activity Fold-R” value [12] of the same molecule?
**A.** 1.2

**Q.** What about the “Inhibition of RT RNase H Activity Fold-R” value [13] of the same molecule?
**A.** 4.2

**Q.** And the IC50 [14]?
**A.** 1.1 ± 0.32 µM

**Q.** What about the “Inhibition of RT RNase H Activity Fold-R” value [15] of the same molecule?
**A.** 3.2

**Q.** And the IC50 [16]?
**A.** 0.83 ± 0.23 µM

**Q.** For `CCOC(=O)Cc1csc(-n2sc3ccccc3c2=O)n1` [Compound 2, ethyl 2-(2-(3-oxobenzo[d]isothiazol-2(3H)-yl)thiazol-4-yl)acetate], which “Inhibition of RT DNA polymerase activity Fold-R” value [1] is on record?
**A.** 1.2

**Q.** And the IC50 [2]?
**A.** 0.53 ± 0.08 µM

**Q.** And the “Inhibition of RT DNA polymerase activity Fold-R” value [3]?
**A.** 0.3

**Q.** And the IC50 [4]?
**A.** 0.71 ± 0.1 µM

**Q.** What about the “Inhibition of RT DNA polymerase activity Fold-R” value [5] of the same molecule?
**A.** 0.2

**Q.** What about the IC50 [6] of the same molecule?
**A.** 5.13 ± 1.68 µM

**Q.** What about the IC50 [7] of the same molecule?
**A.** 3.28 ± 1.53 µM

**Q.** And the “Inhibition of RT DNA polymerase activity Fold-R” value [8]?
**A.** 1.8

**Q.** What about the “Inhibition of RT RNase H Activity Fold-R” value [9] of the same molecule?
**A.** 4.2

**Q.** And the IC50 [10]?
**A.** 0.55 ± 0.02 µM

**Q.** What about the IC50 [11] of the same molecule?
**A.** 0.21 ± 0.01 µM

**Q.** What about the “Inhibition of RT RNase H Activity Fold-R” value [12] of the same molecule?
**A.** 1.6

**Q.** What about the “Inhibition of RT RNase H Activity Fold-R” value [13] of the same molecule?
**A.** 4.5

**Q.** What about the IC50 [14] of the same molecule?
**A.** 0.59 ± 0.04 µM

**Q.** And the “Inhibition of RT RNase H Activity Fold-R” value [15]?
**A.** 1.8

**Q.** And the IC50 [16]?
**A.** 0.24 ± 0.12 µM
